We go through eight molecules from publication PMC12022901 (Frontiers in Pharmacology, 2025).

For series [1] the following is noted: cited from earlier work.
On the set-up of series [2]: method as in Brown, 2014. As to conditions: ref Brown, 2014; cited from earlier work.
Series [3] concerns Coagulation markers (activated partial thromboplastin time and international normalized ratio). Kind of series: Coagulation markers measured 3 h post dose. The class given is in vivo, human (healthy volunteers).
The test system of another series is CYP3A. Kind of series: CYP3A activity assessed by pharmacokinetics of microdosed midazolam (limited sampling, AUC2-4, eCLmet).
A short description of series [4]: Safety: adverse events in the trial cohorts. As to conditions: cohort of the named antiepileptic drug.
Series [5] is described as follows: Pharmacokinetics of factor Xa inhibitors at baseline and at pregabalin steady-state (open-label fixed-sequence DDI trial). The following applies: human, in vivo, po, oral microdose cocktail, GM. From the text: (§1) A p-value < 0.05 was considered significant.
Series [6] can be described thus: Pharmacokinetics of factor Xa inhibitors at baseline and at gabapentin steady-state (open-label fixed-sequence DDI trial). As to conditions: human, in vivo, po, oral microdose cocktail, GM.
Description: as §1

A short description of another series: clinical. The following applies: for Vd/F: Vz/F; for half-life: t1/2, oral microdose cocktail; for exposure (AUC) during carbamazepine relative to baseline: microdosed FXaI.
The mark [7] stands for this setting: healthy volunteers, 7-d rifampin treatment, ref Mendell et al., 2015.
The mark [8] stands for this setting: 180 min after edoxaban 60 mg alone.
[9] abbreviates: 180 min after edoxaban 60 mg with carbamazepine.
[10] abbreviates: carbamazepine cohort, at carbamazepine steady-state, with edoxaban 60 mg.
Where [11] appears, read: carbamazepine cohort, at carbamazepine steady-state, with microdosed FXaI.
Where [12] appears, read: carbamazepine cohort, baseline, with edoxaban 60 mg.
Setting [13] is: gabapentin cohort, at gabapentin steady-state, with edoxaban 60 mg.
Where [14] appears, read: gabapentin cohort, at gabapentin steady-state, with microdosed FXaI.
Where [15] appears, read: gabapentin cohort, baseline, with edoxaban 60 mg.
The mark [16] stands for this setting: pregabalin cohort, at pregabalin steady-state, with edoxaban 60 mg.
[17] abbreviates: pregabalin cohort, at pregabalin steady-state, with microdosed FXaI.
The mark [18] stands for this setting: pregabalin cohort, baseline, with edoxaban 60 mg.
[19] abbreviates: human, in vivo, po, oral microdose cocktail (25 µg apixaban, 50 µg edoxaban, 25 µg rivaroxaban), baseline, GM.
[20] abbreviates: human, in vivo, po, oral microdose cocktail, during carbamazepine steady-state, GM.
[21] abbreviates: human, in vivo, po, oral microdose cocktail, baseline, GM.
Setting [22] is: human, in vivo, po, oral microdose cocktail, at carbamazepine steady-state, GM.
The mark [23] stands for this setting: human, in vivo, po, at carbamazepine steady-state, GM.
Setting [24] is: human, in vivo, po, baseline, GM.
[25] abbreviates: oral microdose cocktail, at carbamazepine steady-state, GM.
Setting [26] is: oral microdose cocktail, baseline, GM.

Description for CYP3A: We simultaneously quantified the effect on CYP3A activity with an oral midazolam microdose (30 µg) (Figure 1).
Carbamazepine, gabapentin, and pregabalin were dosed to steady-state during a treatment period of 21 d for carbamazepine, 13 d for gabapentin, and 21 d for pregabalin, followed by the evaluation of their perpetrator effects. Steady-state was ensured until the last blood sample was drawn. Carbamazepine was titrated to a maximum dose of 200 mg twice a day, if possible. If this dose could not be reached due to adverse events, carbamazepine was titrated to therapeutic plasma concentrations (5–10 μg/mL), with the lower range chosen to ensure the safety of the participants. Gabapentin was administered at a dose of 400 mg three times a day and pregabalin at a dose of 300 mg twice a day. Single-dose pharmacokinetics of the microdosed FXaI were assessed at baseline and at the end of the above mentioned treatment period, at steady-state of the perpetrator.
All collected samples were processed within 20 min and plasma was stored at ≤ −20°C until analysis.
Non-compartmental analyses were conducted to assess the pharmacokinetics of the FXaI and midazolam utilizing Phoenix WinNonlin 8.3 (Certara, Inc., Princeton, NJ, United States). Cmax and the time to reach Cmax (tmax) were directly obtained from the concentration data. The area under the concentration-time curve from 0 to infinity ( AUC∞ ) was determined using the log-linear trapezoidal rule with extrapolation to infinity. The half-life (t1/2) was calculated as ln2/λz , with the elimination rate constant λz being estimated utilizing log-linear regression of the elimination phase. Apparent oral CL (CL/F) and volume of distribution (Vz/F) were calculated using standard equations for non-compartmental analysis.

For `CN1CCc2nc(C(=O)N[C@@H]3C[C@@H](C(=O)O)CC[C@@H]3NC(=O)C(=O)Nc3ccc(Cl)cn3)sc2C1` [Edoxaban M-4], in series [1] (setting [7]), the AUC increase is reported as 2.86 fold and the Cmax increase is on record as 5.06 fold. Moreover, the “anticoagulant effects of M-4 and edoxaban” value in series [2] is reported as “comparable anticoagulant effects”.
With `CN1CCc2nc(C(=O)N[C@@H]3C[C@@H](C(=O)N(C)C)CC[C@@H]3NC(=O)C(=O)Nc3ccc(Cl)cn3)sc2C1` [Edoxaban, edoxaban], in series [3] (setting [8]), the “INR, mean” value amounted to 1.23 and the “aPTT, mean” value turned out to be 33.63. For the same molecule, in series [3] (setting [9]), the “INR, mean” value was 1.14 and the “aPTT, mean” value is listed as 29.56. Further, the “coagulation changes induced by edoxaban” value in series [3] (therapeutic dose or microdose, with gabapentin or pregabalin (data not shown)) is “not influenced”. For the same molecule, the AUC reduction entry in series [1] (co-administration with rifampin, ref Lixiana, 2017) was “up to 35%”.
For `Cc1ncc2n1-c1ccc(Cl)cc1C(c1ccccc1F)=NC2` [Midazolam, midazolam], the eCLmet amounted to 5654 mL/h in the series on CYP3A (setting [10]); 5636 mL/h in the series on CYP3A (setting [11]); 997 mL/h in the series with CYP3A (setting [12]); 1021 mL/h in the series on CYP3A (carbamazepine cohort, baseline, with microdosed FXaI); 923 mL/h in the series on CYP3A (setting [13]); 957 mL/h in the series on CYP3A (setting [14]). Besides, the eCLmet in the series on CYP3A (setting [15]) amounted to 931 mL/h; in the series on CYP3A (gabapentin cohort, baseline, with microdosed FXaI), 936 mL/h; in the series with CYP3A (setting [16]), 1306 mL/h; in the series on CYP3A (setting [17]), 1198 mL/h; with CYP3A (setting [18]) it was 1201 mL/h; in the series on CYP3A (pregabalin cohort, baseline, with microdosed FXaI), 1061 mL/h. The “eCLmet GMR to baseline” value in the series with CYP3A (setting [10]) is reported as 5.54; in the series on CYP3A (setting [11]) it was 5.52; with CYP3A (setting [12]) it was 0.98; with CYP3A (setting [13]), 0.99; in the series with CYP3A (setting [14]), 1.02; with CYP3A (setting [15]) it was 1.0. In addition, the “decrease of midazolam AUC2-4” value in the series with CYP3A (co-administration of carbamazepine) is 82%. Besides, the “effect on midazolam pharmacokinetics” value with CYP3A (gabapentin steady-state) and in the series on CYP3A (pregabalin steady-state) was “did not alter” throughout. The “eCLmet ratio to baseline” value in the series with CYP3A (setting [16]) was found to be 1.23; in the series on CYP3A (setting [17]), 1.13; with CYP3A (setting [18]), 1.13.
Turning to `NC(=O)N1c2ccccc2C=Cc2ccccc21` [carbamazepine], in series [4], the “adverse events deemed possibly related to the trial medication” value (“adverse events deemed possibly related” for short) came out at 19; the adverse events overall is 29; the “participants with adverse events” value is 12 of 13; the “severe or serious adverse events” value was “none was serious, one was severe”.
On to `NCC1(CC(=O)O)CCCCC1` [gabapentin], for which, in series [4], the “adverse events deemed possibly related” value was 21, the adverse events overall is 39, the “participants with adverse events” value is on record as 11 of 11 and the “severe or serious adverse events” value is “none was severe or serious”.
Take `CC(C)C[C@H](CN)CC(=O)O` [pregabalin]: in series [4], the “adverse events deemed possibly related” value is given as 25, the adverse events overall came to 37, the “participants with adverse events” value is recorded as 11 of 12 and the “severe or serious adverse events” value is recorded as “none was severe or serious”.
For `COc1ccc(-n2nc(C(N)=O)c3c2C(=O)N(c2ccc(N4CCCCC4=O)cc2)CC3)cc1` [µ-apixaban, apixaban], the AUC(0-inf) in series [5] (before pregabalin) is 6.2 ng·h/mL; in series [5] (during pregabalin steady-state), 6.07 ng·h/mL; in series [6] (baseline) it was 6.95 ng·h/mL; in series [6] (during gabapentin steady-state), 6.48 ng·h/mL; in “clinical” (setting [19]) it was 5.9 ng·h/mL; in “clinical” (setting [20]), 3.92 ng·h/mL. Further, the Cmax in series [5] (before pregabalin) came to 0.782 ng/mL; in series [5] (during pregabalin steady-state), 0.775 ng/mL; in series [6] (baseline), 0.822 ng/mL; in series [6] (during gabapentin steady-state) it was 0.775 ng/mL; in “clinical” (setting [21]) it was 0.719 ng/mL; in the series “clinical” (setting [20]) it was 0.634 ng/mL. Besides, the Vd/F in “clinical” (setting [22]) and in “clinical” (setting [21]) was 36 L in each case. Moreover, the half-life came out at 3.95 h in “clinical” (setting [23]) and 5.97 h in “clinical” (setting [24]). The “exposure (AUC) during carbamazepine relative to baseline” value in “clinical” is 66%. Further, the tmax in “clinical” (oral microdose cocktail (solution), baseline, GM) was 1.6 h; in “clinical” (setting [25]) it was 1.72 h. Moreover, the CL/F in “clinical” (setting [25]) turned out to be 6.4 L/h; in “clinical” (setting [26]), 4.2 L/h. The reduction in exposure in series [1] (combined use with inducers of both CYP3A4 and P-gp such as carbamazepine, ref Eliquis, 2024) is approximately 50%.
Regarding `O=C(NC[C@H]1CN(c2ccc(N3CCOCC3=O)cc2)C(=O)O1)c1ccc(Cl)s1` [µ-rivaroxaban, rivaroxaban], the AUC(0-inf) in series [5] (before pregabalin) is 3.08 ng·h/mL; in series [5] (during pregabalin steady-state) it was 3.03 ng·h/mL; in series [6] (baseline), 3.23 ng·h/mL; in series [6] (during gabapentin steady-state), 2.98 ng·h/mL; in “clinical” (setting [19]), 3.1 ng·h/mL; in the series “clinical” (setting [20]) it was 1.73 ng·h/mL. The Cmax was determined as 0.783 ng/mL in series [5] (before pregabalin); 0.744 ng/mL in series [5] (during pregabalin steady-state); 0.718 ng/mL in series [6] (baseline); 0.688 ng/mL in series [6] (during gabapentin steady-state); 0.695 ng/mL in “clinical” (setting [21]); 0.524 ng/mL in the series “clinical” (setting [20]). Further, the tmax in “clinical” (human, in vivo, po) was 0.817 h; in the series “clinical” (setting [25]), 0.817 h. Moreover, the Vd/F in the series “clinical” (setting [22]) was 63 L; in the series “clinical” (setting [21]), 61 L. The values for the half-life in “clinical” (setting [23]) and in the series “clinical” (setting [24]) were 3.02 h and 5.23 h, respectively. In “clinical”, the “exposure (AUC) during carbamazepine relative to baseline” value was 56%. For the same molecule, the CL/F in “clinical” (setting [25]) turned out to be 14 L/h; in “clinical” (setting [26]), 8.0 L/h.
